Read-outs that look alike come from different tables or passages of the source.
What was measured:
[1] = In vivo pharmacokinetics in mice; details: mouse, plasma, ip, 30 mg/kg, intraperitoneal
CDK12 [2] = target: T1, CDK12 (Homo sapiens, UniProt Q9NYV4); experiment: Western blot degradation of CDK12 (Example 3); type: cell-based; parameters: degradation of CDK12/13 protein in leukemia cells KASUMI-1, MV4-11, and Jurkat; endogenous in cells
hERG channel = target: T2, hERG channel (Homo sapiens, UniProt Q12809); experiment: Manual patch-clamp of hERG channel currents stably expressed in HEK293 cells; type: cell-based; details: 0.3 μM-30 μM, HEK293, room temperature
T2 construct: manual patch clamp of tail current
Experimental: III. Manual Patch-Clamp Detection of the Effect of Compounds on hERG Channel Currents Stably Expressed in HEK293 Cells
A 30 mM stock solution of compound 147 was prepared in DMSO. The stock solution was serially diluted with DMSO to prepare secondary stock solutions of 10 mM, 3 mM, 1 mM, and 0.3 mM. 10 μL of the secondary stock solution was diluted in 10 mL of extracellular solution to prepare final concentrations of 30 μM, […], 3 μM, 1 μM, and 0.3 μM for electrophysiological detection. A 10 mM stock solution of the positive control, cisapride, was prepared in DMSO. The stock solution was serially diluted with DMSO to prepare secondary stock solutions of 1000 μM, 100 μM, 10 μM, 1 μM, and 0.1 μM. 10 μL of the secondary stock solution was diluted in 10 mL of extracellular solution to prepare final concentrations of 1000 nM, 100 nM, 10 nM, 1 nM, and 0.1 nM for electrophysiological detection. […]
d. […] The current was recorded once every 15 s.
e. The hERG potassium channel current was recorded at room temperature before drug addition. […]
The original data hERG tail current peak values were extracted from the PatchMaster software. The current inhibition rate was calculated using the following formula:
The mean and standard error were calculated for each concentration. […]

CDK13 [3] = target: T3, CDK13 (Homo sapiens, UniProt Q14004); experiment: Reversal of CDK13 degradation by proteasome inhibitor MG132, Western blot; type: cell-based; parameters: endogenous in cells; details: MDA-MB-231, 24 h treatment, MG132 added 12 h before sample collection
Experimental: (§1) • Cell lines: HCT-116, Jurkat, or MDA-MB-231 • Culture medium: DMEM/RIPM-1640+10% Hyclone serum • Compound dissolution method: The compounds (small molecule conjugates as shown in Formulae 101-147, MG132) were dissolved in DMSO to prepare a 50 mM stock solution and then diluted to the corresponding concentrations.
(§2) (3) Compound treatment: The 50 mM compound stock solution was diluted with cell culture medium to a final concentration of 0.01 μM-3 μM. Cells were incubated in a 37 °C incubator with 5% CO2 for 3 h-48 h. The DMSO group served as the negative control.

CDK13 [4] = target: T3, CDK13; experiment: Western blot degradation of CDK13 (Example 3); type: cell-based; parameters: degradation of CDK12/13 protein in leukemia cells KASUMI-1, MV4-11, and Jurkat; endogenous in cells
CCNK = experiment: Reversal of CCNK degradation by proteasome inhibitor MG132, Western blot; type: cell-based; details: MDA-MB-231, 24 h treatment, MG132 added 12 h before sample collection
Experimental: as §1, §2
In the figures, CDK12, CDK13, and CCNK are the target proteins under study, and β-Actin and GAPDH are the internal reference proteins. Internal reference proteins are used to indicate the total protein amount in each experimental group for quantitative analysis.

CDK12 [5] = target: T1, CDK12; experiment: Reversal of CDK12 degradation by proteasome inhibitor MG132, Western blot; type: cell-based; parameters: endogenous in cells; details: MDA-MB-231, 24 h treatment, MG132 added 12 h before sample collection
Experimental: as §1, §2

[6] = test system: tumor cells MDA-MB-231, MV4-11, and KASUMI-1 and normal cells L-02 and HK-2; experiment: Survival of tumor and normal cells (CCK8 / SRB); type: cell-based; details: 72 h, concentration gradient, FIG. 10
Experimental: The proliferation inhibition of compounds on leukemia cell lines MV4-11 and KASUMI-1 was determined using the CCK8 assay, while the inhibition on solid tumor cell lines MDA-MB-231 was determined using the Sulforhodamine B (SRB) assay.
CCK8 Assay: First, MV4-11 and KASUMI-1 cells were seeded in a 96-well plate at a density of 5,000 cells per well. Then, a concentration gradient (0.03 μM-10 μM) of the compounds was administered for 72 h, with DMSO solvent serving as the negative control. At the end of the treatment, 10 μL of CCK8 reagent was added to each well. The plate was incubated for 4 hours at 37 °C in the dark. After mixing, the absorbance value was measured at 450 nm.
SRB Assay: First, MDA-MB-231, L-02, and HK-2 cells were seeded in a 96-well plate at a density of 3,000 cells per well. After 8-12 h of cell adhesion, a concentration gradient (62.5 nM-10 μM) of the compounds was administered for 72 h, with DMSO solvent serving as the negative control. At the end of the treatment, the cells were washed once with 70 μL of PBS, then fixed with 70 μL of 10% trichloroacetic acid at 4 °C for 1 h. After rinsing with tap water and drying in an oven, 70 μL of SRB staining solution was added to each well for 20 min at room temperature. […] Finally, 150 μL of 10 mM Tris-base dissolving solution was added, and the plate was shaken for 15 min before the absorbance value was measured at 540 nm.

T3 sequence (Q14004 whole entry): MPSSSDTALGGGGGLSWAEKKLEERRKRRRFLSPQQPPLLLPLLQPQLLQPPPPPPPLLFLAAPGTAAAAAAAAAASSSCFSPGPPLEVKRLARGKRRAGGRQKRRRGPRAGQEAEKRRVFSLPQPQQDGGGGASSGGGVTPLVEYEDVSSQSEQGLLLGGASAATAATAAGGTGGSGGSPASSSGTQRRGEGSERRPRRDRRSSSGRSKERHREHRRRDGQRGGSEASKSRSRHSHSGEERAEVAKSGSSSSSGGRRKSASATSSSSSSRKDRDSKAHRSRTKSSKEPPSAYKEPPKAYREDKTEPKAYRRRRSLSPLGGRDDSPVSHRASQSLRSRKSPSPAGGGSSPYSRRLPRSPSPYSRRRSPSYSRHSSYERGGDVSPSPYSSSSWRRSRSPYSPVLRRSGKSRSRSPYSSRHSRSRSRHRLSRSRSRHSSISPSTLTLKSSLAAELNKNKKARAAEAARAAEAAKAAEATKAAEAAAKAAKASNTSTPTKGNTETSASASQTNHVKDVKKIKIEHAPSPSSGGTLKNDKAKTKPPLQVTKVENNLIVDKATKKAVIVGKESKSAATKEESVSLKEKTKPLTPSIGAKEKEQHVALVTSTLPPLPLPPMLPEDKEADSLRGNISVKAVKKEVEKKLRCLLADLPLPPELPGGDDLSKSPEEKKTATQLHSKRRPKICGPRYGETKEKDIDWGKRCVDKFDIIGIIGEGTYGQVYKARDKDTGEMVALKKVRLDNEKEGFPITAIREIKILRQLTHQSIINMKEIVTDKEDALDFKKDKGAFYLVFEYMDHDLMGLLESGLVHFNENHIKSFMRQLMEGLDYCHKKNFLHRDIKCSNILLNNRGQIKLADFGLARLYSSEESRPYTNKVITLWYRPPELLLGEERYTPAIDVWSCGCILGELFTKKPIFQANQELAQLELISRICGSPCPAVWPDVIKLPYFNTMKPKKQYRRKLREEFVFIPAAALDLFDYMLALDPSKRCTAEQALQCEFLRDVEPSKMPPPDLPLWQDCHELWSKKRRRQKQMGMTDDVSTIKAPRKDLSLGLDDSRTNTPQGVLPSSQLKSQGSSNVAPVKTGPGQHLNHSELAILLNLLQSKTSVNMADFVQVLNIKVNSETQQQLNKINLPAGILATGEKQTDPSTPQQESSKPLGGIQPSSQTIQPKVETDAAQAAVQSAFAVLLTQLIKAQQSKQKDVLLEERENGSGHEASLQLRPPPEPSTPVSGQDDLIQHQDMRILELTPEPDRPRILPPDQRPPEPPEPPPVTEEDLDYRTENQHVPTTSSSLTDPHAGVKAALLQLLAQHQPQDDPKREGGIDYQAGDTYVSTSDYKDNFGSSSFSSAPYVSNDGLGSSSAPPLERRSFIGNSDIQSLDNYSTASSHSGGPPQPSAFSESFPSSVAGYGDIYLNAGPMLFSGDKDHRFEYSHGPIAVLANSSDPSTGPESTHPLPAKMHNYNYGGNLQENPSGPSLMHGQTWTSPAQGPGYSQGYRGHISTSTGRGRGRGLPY
T3 sequence (O75909 whole entry partner): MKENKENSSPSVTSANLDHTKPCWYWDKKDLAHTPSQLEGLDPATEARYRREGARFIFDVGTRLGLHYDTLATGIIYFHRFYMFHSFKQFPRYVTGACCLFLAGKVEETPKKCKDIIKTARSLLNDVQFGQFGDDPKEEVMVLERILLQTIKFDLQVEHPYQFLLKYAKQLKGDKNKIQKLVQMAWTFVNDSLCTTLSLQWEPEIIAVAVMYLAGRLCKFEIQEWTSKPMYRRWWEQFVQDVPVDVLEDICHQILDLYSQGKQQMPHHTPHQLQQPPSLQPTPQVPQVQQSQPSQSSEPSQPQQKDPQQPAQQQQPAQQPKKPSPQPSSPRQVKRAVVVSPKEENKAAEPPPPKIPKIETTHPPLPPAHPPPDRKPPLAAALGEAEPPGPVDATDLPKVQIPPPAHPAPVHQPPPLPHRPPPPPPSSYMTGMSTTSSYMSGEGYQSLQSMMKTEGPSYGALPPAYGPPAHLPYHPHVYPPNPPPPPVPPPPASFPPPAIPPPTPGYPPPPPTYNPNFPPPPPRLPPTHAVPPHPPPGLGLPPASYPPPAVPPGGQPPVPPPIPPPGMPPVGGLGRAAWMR
T1 sequence (Q9NYV4 whole entry): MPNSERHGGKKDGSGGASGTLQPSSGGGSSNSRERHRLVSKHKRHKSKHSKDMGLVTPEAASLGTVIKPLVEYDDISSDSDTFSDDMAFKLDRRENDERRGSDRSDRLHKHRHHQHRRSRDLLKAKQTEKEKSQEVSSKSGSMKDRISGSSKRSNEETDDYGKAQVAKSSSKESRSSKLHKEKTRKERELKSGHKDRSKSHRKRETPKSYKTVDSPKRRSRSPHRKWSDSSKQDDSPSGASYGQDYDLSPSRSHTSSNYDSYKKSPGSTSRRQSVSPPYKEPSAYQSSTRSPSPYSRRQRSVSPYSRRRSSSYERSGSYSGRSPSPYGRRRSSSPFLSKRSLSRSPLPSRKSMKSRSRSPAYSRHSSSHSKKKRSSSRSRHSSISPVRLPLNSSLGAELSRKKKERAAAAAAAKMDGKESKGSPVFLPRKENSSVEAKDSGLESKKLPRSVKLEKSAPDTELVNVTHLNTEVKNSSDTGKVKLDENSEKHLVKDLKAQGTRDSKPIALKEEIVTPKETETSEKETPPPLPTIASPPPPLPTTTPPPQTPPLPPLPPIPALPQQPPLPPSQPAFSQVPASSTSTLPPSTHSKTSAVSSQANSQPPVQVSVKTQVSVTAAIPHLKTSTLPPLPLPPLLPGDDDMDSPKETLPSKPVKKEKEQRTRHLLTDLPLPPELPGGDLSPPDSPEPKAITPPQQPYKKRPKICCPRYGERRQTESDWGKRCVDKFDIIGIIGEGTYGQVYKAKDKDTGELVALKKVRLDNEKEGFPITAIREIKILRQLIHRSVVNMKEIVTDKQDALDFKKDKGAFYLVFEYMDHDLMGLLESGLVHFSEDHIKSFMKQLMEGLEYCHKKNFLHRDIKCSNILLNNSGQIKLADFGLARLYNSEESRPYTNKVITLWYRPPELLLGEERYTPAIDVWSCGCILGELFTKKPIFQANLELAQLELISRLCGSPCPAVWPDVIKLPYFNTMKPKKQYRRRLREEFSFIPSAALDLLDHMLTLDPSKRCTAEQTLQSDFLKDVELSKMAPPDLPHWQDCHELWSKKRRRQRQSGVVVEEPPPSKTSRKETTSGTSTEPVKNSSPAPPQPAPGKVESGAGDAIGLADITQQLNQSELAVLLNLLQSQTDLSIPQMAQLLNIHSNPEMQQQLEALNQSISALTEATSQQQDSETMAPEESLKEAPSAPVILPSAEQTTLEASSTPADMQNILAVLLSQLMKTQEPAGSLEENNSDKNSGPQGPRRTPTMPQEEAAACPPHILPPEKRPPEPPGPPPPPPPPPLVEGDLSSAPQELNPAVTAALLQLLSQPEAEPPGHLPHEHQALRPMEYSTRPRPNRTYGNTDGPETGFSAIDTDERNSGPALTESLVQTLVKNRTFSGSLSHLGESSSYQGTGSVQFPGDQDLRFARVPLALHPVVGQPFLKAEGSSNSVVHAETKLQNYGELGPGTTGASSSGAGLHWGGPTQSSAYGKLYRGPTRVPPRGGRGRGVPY
T1 sequence (O75909 whole entry partner): as the sequence (O75909 whole entry partner) above
T2 sequence (Q12809 whole entry): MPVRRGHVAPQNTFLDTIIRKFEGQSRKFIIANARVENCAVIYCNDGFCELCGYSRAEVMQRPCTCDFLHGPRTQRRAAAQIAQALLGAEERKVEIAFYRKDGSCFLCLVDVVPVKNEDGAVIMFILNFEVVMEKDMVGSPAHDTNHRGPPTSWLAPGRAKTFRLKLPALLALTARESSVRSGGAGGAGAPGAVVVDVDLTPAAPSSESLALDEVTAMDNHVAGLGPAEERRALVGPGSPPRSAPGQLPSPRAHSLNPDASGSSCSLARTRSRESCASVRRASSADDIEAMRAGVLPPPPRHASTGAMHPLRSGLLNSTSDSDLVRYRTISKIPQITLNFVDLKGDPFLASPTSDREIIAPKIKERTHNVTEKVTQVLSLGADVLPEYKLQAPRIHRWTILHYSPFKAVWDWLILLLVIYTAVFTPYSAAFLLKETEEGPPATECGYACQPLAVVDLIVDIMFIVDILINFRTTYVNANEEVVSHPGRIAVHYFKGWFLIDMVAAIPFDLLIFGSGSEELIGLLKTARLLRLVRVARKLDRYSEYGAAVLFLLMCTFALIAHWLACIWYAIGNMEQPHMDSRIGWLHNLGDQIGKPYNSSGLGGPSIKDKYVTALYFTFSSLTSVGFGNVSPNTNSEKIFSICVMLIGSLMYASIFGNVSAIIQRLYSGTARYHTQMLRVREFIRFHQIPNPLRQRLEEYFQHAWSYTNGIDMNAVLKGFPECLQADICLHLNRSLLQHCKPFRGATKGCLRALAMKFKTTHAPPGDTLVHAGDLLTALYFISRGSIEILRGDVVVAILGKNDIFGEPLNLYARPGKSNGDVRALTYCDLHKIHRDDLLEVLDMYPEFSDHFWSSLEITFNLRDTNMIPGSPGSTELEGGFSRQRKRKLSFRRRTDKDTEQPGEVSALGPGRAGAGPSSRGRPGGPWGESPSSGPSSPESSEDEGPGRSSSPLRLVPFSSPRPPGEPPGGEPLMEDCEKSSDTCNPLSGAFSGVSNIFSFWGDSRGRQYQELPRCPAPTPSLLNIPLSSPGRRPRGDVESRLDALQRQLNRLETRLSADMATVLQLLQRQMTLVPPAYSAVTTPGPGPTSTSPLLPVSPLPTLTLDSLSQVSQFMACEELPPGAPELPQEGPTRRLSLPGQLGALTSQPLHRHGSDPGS

SMILES | half-life [1] | DC50 (CDK12 [2]; DC50 classes, cell line not given, read-out: CDK12 degradation Activity) | DC50 (CDK12 [2]; HCT116, colorectal cancer cells, read-out: CDK12 DC50) | DC50 (CDK12 [2]; KASUMI-1, leukemia cells, read-out: CDK12 DC50) | DC50 (CDK12 [2]; MDA-MB-231, breast cancer cells, read-out: CDK12 DC50) | inhibitory effect on the hERG channel (hERG channel) | reversal of CDK13 degradation by MG132 (CDK13 [3]) | DC50 (CDK13 [4]; DC50 classes, cell line not given, read-out: CDK13 degradation Activity) | DC50 (CDK13 [4]; HCT116, colorectal cancer cells, read-out: CDK13 DC50) | DC50 (CDK13 [4]; KASUMI-1, leukemia cells, read-out: CDK13 DC50) | DC50 (CDK13 [4]; MDA-MB-231, breast cancer cells, read-out: CDK13 DC50) | reversal of CCNK degradation by MG132 (CCNK) | reversal of CDK12 degradation by MG132 (CDK12 [5]) | proliferation inhibitory activity on normal and tumor cells [6]
CC(=O)N(c1ccc(-c2ccc(N3CCN(CC(=O)N[C@H](C(=O)N4C[C@H](O)C[C@H]4C(=O)N[C@@H](C)c4ccc(-c5scnc5C)cc4)C(C)(C)C)CC3)nc2)cc1)[C@H]1CC[C@H](Nc2ncc3ccccc3n2)CC1 [Formula 147, (2S,4R)-1-((S)-3,3-dimethyl-2-(2-(4-(5-(4-(N-((1R,4R)-4-(quinazolin-2-ylamino)cyclohexyl)acetamido)phenyl)pyridin-2-yl)piperazin-1-yl)acetamido)butanoyl)-4-hydroxy-N—((S)-1-(4-(4-methylthiazol-5-yl)phenyl)ethyl)pyrrolidine-2-carboxamide] | 2.58 h | < 100 nM | 13 nM | 17 nM | 15 nM | weak or no inhibitory effect on the hERG channel | can reverse the degradation of CDK12/13 and CCNK | < 100 nM | 15 nM | 10 nM | 9 nM | can reverse the degradation of CDK12/13 and CCNK | can reverse the degradation of CDK12/13 and CCNK | –
CN(C)C/C=C/C(=O)Nc1ccc(C(=O)N2CCC[C@@H](Nc3ncc(Cl)c(-c4c[nH]c5ccccc45)n3)C2)cc1 [THZ-531] | – | – | – | – | – | – | – | – | – | – | – | – | – | indiscriminate proliferation inhibitory activity on both normal and tumor cells

Reference: patent US20260327204A1, “DEGRADERS OF CYCLIN-DEPENDENT KINASE 12/13, COMPOSITIONS, AND USES THEREOF” (ZHEJIANG UNIVERSITY, priority 2023, published 2026)
